The source of these data is PMC9832397 (Nature chemistry, 2022).

Test [1] has as its target T1, MAT (malonyl-/acetyl transferase domain of murine FAS) (Mus musculus, UniProt P19096).
T1 sequence (P19096 488-816 limits assumed): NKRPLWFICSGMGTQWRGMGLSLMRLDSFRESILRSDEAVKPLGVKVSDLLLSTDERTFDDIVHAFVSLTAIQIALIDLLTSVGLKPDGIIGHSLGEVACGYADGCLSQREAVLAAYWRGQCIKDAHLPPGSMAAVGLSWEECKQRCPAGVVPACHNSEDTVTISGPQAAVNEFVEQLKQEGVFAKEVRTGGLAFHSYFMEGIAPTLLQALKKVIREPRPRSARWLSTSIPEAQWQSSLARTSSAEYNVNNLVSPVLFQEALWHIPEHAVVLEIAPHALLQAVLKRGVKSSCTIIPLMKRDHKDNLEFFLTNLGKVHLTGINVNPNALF
The experiment in a line: enzyme-coupled fluorometric transacylation assay. Type of test: biochemical. As to conditions: individual domains; acceptor DEBS ACP6 presumed.

The target of the next test is DEBS M6+TE (WT) (Saccharopolyspora erythraea, UniProt Q03133). The experiment in a line: NADPH consumption assay. As to conditions: 400 mM phosphate pH 7.2, 25 °C. Type of test: biochemical.
Chain of DEBS M6+TE (WT) (Q03133 1470-3172 limits assumed): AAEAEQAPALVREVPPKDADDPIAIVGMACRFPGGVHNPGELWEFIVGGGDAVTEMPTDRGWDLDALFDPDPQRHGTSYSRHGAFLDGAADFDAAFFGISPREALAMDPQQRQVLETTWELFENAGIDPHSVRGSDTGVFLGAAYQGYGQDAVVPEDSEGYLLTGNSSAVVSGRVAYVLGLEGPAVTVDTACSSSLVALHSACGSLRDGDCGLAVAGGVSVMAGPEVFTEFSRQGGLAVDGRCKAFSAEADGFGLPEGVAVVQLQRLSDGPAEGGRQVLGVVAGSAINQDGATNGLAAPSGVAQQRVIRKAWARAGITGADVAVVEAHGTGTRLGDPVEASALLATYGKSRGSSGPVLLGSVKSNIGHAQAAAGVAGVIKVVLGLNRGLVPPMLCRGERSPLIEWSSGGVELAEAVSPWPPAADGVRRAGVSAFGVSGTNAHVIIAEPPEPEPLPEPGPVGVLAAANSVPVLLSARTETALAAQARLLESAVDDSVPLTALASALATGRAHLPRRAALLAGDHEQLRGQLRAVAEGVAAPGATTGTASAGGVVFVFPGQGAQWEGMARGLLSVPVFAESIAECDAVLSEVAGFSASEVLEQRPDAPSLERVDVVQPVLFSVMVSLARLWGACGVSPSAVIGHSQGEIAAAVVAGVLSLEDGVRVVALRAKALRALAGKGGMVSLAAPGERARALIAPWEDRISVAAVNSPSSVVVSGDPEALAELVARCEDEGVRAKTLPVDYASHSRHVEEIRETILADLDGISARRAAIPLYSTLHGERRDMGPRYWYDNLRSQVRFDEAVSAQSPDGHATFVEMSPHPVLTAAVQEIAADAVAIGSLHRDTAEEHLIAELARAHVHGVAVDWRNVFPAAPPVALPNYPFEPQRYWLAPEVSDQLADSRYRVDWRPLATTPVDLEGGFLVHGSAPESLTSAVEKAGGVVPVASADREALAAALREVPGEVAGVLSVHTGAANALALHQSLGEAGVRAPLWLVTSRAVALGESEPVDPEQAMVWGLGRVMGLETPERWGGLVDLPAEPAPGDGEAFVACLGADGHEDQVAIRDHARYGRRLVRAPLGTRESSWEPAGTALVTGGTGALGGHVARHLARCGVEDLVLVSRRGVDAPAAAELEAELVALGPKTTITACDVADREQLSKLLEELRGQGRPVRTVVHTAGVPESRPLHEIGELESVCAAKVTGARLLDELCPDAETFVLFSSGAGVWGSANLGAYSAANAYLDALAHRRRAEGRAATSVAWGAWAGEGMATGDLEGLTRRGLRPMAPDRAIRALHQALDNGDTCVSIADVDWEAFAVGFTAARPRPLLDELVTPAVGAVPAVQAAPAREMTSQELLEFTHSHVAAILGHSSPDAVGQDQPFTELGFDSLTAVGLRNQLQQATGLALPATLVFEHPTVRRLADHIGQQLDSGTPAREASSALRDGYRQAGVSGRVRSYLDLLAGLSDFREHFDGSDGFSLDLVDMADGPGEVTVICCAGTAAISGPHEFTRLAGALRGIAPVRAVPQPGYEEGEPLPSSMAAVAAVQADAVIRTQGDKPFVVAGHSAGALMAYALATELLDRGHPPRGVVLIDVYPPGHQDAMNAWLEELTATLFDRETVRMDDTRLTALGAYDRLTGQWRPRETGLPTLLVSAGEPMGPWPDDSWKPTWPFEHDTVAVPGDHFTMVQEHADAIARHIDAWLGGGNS
Test [2] deals with DEBS module 6 including its C-terminal TE domain (DEBS M6+TE), wildtype (Saccharopolyspora erythraea). The experiment in a line: SEC.

Chain of DEBS module 6 including its C-terminal TE domain (DEBS M6+TE), wildtype (domain or fragment) (Q03133 2-3172): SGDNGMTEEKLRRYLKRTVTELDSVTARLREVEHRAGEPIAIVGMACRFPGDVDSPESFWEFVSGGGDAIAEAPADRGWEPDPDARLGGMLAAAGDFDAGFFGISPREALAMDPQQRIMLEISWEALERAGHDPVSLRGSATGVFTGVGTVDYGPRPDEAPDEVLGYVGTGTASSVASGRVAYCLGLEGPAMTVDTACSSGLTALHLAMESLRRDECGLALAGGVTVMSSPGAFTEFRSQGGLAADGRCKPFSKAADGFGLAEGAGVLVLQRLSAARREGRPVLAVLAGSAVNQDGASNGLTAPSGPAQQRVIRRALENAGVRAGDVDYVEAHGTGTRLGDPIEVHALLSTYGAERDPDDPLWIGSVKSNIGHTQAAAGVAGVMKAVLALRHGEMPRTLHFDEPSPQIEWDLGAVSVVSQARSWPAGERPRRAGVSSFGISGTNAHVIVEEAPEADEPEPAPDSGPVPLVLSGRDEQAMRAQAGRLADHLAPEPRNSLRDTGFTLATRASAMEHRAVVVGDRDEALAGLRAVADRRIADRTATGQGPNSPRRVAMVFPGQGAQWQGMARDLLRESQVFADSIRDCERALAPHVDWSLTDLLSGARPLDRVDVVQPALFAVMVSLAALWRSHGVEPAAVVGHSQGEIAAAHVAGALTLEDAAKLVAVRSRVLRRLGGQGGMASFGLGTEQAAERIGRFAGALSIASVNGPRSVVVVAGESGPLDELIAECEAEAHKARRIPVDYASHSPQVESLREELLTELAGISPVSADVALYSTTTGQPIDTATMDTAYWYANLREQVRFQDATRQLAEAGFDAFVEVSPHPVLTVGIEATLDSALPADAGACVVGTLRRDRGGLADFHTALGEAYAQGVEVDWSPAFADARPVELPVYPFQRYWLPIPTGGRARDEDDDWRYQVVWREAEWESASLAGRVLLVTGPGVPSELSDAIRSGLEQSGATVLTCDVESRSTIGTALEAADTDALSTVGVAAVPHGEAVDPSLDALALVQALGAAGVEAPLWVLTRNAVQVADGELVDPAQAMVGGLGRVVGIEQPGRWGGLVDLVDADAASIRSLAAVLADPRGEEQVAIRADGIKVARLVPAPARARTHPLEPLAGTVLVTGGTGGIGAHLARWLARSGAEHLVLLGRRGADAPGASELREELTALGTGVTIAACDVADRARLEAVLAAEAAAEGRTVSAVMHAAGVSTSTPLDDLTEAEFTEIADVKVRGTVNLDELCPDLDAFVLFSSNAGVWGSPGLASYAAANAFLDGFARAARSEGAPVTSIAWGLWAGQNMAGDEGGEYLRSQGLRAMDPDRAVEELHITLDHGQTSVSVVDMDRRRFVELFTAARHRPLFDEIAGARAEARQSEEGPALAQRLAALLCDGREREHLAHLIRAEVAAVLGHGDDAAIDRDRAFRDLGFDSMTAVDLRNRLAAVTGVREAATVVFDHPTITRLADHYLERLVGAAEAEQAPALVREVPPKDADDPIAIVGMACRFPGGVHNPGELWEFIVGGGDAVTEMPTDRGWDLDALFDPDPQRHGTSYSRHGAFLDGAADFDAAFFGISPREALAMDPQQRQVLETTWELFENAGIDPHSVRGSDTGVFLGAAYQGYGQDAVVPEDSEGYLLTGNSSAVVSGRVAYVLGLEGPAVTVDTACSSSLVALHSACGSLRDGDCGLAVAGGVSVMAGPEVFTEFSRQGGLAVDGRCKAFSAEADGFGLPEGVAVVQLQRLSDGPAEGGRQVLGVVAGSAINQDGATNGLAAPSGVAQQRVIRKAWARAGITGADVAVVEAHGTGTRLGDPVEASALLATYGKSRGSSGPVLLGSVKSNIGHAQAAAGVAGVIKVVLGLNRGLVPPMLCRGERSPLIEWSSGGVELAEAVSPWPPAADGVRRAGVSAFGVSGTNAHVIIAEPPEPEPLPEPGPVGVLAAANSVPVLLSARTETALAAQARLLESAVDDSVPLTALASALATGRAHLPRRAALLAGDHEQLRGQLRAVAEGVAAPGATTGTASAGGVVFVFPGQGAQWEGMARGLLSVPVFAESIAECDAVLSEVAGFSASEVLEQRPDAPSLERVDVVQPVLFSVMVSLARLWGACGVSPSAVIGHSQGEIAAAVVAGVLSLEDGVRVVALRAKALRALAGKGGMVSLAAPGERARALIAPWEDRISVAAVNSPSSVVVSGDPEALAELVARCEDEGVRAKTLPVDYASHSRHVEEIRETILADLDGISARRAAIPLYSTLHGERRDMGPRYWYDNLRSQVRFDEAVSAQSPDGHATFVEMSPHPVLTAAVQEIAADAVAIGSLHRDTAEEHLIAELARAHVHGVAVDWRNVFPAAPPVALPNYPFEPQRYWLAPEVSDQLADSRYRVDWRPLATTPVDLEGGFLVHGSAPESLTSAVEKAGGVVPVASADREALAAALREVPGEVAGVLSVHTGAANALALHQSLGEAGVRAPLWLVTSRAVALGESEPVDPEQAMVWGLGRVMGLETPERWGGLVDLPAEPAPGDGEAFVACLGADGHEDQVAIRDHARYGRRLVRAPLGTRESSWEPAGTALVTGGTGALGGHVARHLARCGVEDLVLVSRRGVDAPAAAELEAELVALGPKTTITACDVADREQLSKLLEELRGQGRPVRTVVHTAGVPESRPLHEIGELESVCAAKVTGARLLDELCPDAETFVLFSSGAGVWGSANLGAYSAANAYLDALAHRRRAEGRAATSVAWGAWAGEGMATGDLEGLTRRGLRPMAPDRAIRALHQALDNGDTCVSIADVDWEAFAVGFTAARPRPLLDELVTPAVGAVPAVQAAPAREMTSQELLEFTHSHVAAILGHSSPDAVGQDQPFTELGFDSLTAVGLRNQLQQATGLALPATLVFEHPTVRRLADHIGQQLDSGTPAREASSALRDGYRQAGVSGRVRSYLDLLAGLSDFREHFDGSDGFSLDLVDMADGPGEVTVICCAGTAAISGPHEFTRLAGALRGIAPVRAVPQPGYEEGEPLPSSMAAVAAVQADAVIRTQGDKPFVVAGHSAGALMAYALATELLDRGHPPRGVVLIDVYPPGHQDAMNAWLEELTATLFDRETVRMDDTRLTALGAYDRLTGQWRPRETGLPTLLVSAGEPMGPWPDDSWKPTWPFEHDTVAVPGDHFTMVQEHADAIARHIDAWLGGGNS

Consider `CC(C)(COP(=O)(O)OP(=O)(O)OC[C@H]1O[C@@H](n2cnc3c(N)ncnc32)[C@H](O)[C@@H]1OP(=O)(O)O)[C@@H](O)C(=O)NCCC(=O)NCCSC(=O)C(F)C(=O)O` (mixture of isomers) [compound 1, F-Mal-CoA], for which, in test [1], the Km entry is “we observed excellent transfer kinetics of MAT for F-Mal-CoA”.
Same read-out and setting: with `CC(F)(C(=O)O)C(=O)SCCNC(=O)CCNC(=O)[C@H](O)C(C)(C)COP(=O)(O)OP(=O)(O)OC[C@H]1O[C@@H](n2cnc3c(N)ncnc32)[C@H](O)[C@@H]1OP(=O)(O)O` (mixture of isomers) [compound 17, F-MM-CoA] the entry was “the MAT showed excellent transfer kinetics for F-MM-CoA”.
Turning to `CC(C(=O)O)C(=O)SCCNC(=O)CCNC(=O)[C@H](O)C(C)(C)COP(=O)(O)OP(=O)(O)OC[C@H]1O[C@@H](n2cnc3c(N)ncnc32)[C@H](O)[C@@H]1OP(=O)(O)O` (some centres unmarked) [MM-CoA], the turnover rate entry at DEBS M6+TE (WT) (diketide 2, NADPH) is “Turnover rates for the WT-, H1- and H2-mediated formation of TKLs”.
Regarding `CC[C@@H](O)[C@H](C)C(=O)SCCNC(C)=O` [compound 2, (2S,3R)-2-methyl-3-hydroxypentanoyl-N-acetylcysteamine thioester], on DEBS M6+TE (WT) (MM-CoA, NADPH), the turnover rate result is “Turnover rates for the WT-, H1- and H2-mediated formation of TKLs”.
“DEBS module 6 including its C-terminal TE domain (DEBS M6+TE), wildtype (domain or fragment)” had a stoichiometry N in test [2] of 2.
